The results in this text go back to patent publication EP4523682A1, “PROCESS TO COMPLEX OLEANOLIC ACID WITH CYCLODEXTRINS AND PRODUCTS OBTAINED THEREOF” (FUNDACION UNIVERSITARIA SAN ANTONIO (UCAM), priority 2023, dated 2025).

In experiment [1] the test system is c-Jun active phosphorylated form (p-c-Jun). Nature of the experiment: Cell-front migration assay, p-c-Jun immunostaining. The following applies: 12.5/3.12 µM/mM OA/HP-β-CD, 5 µM OA/DMSO. In kind it is cell-based, Mink.
Experimental: Mv1Lu cells are grown until they reach confluence on round glass-coverslips in 10% FBS-EMEM medium. At this time, cells are washed and a 24h serum-starvation period is set by replacing the medium with FBS-free EMEM. After this, the epithelium is scratched using a razor blade, which produces an artificial wound with enough space to allow cells to migrate. […] After the selected times of incubation, glass-coverslips are fixed with 4% formaldehyde (Applichem GmbH, Darmstadt, Germany) in PBS (Biowest, Nuaillé, France) for 10 minutes and washed twice with PBS. After this, cells are permeabilized with 0,3% Triton X-100 (Sigma-Aldrich, St Louis, MO, USA) in PBS for 10 minutes. […] In order to quantify phospho-c-Jun levels in immunofluorescence pictures, images are analyzed and quantified by Image J software. […] Within each sector, the quantified signal of each nucleus is used as a replicate to obtain p-c-Jun intensity data in each of the conditions performed. For a better understanding, the relation of number of p-c-Jun positive nuclei between total nuclei number is calculated. For this purpose, a basal p-c-Jun intensity mean is calculated considering the control condition of the assays, set as a threshold. […]
Data of intensity values obtained from p-c-Jun nuclei quantifications in immunofluorescence pictures are analyzed by using two statistic tests: Two-way ANOVA test and One-way ANOVA test.
The test system of another experiment is phospho-c-Jun (Ser 63). Nature of the experiment: Western blot. The following applies: 21/5.25 µM/mM OA/HP-β-CD; 10 µM OA/DMSO. In kind it is cell-based, Human. How it is done: (§1) Mv1Lu or MDA-MB-231 cells are seeded and allowed to reach 60% confluence in 10 cm diameter plates. At this time, culture medium containing 10% FBS is replaced by an FBS-free medium, incubating the cells for a 24-hours period. Serum-deprived cells are treated with either OA, OA/HP-β-CD, DMSO, HP-β-CD or 10 ng/ml EGF. After time incubations, cells are harvested, washed twice with ice-cold PBS and lysed with 20 mM TRIS pH 7.5, 150 mM NaCl, 1 mM EDTA, 1.2 mM MgCl2, 0.5%, Nonidet p-40, 1mM DTT, 25 mM NaF and 25 mM β-glycerophosphate supplemented with phosphatase inhibitors (I and II) and protease inhibitors (all from Sigma-Aldrich, St Louis, MO, USA). Total protein amount of all extracts is measured and normalized by Bradford assay (Sigma-Aldrich, St Louis, MO, USA). The extracts are analyzed by SDS-PAGE followed by Western blot (WB) using the indicated antibodies (see Antibodies section). […] For protein quantification, Western pictures in 8-bit format are processed in imaged software. Subsequently, in all Western blot pictures, a lane is stablished for each of the samples. In each lane, the band is selected according to the specific size (kDa) of the protein of interest. For each total protein and their phosphorylated version, each band's intensity peak is plotted, and next, the area under the plot is measured by using "Wand (tracing) tool" of imaged to obtain the intensity value. In order to normalize, obtained intensity values are referred to obtained intensity values of either the unphosphorylated form of the protein (total) or a loading control protein such as β-actin, only if the unphosphorylated form is undetectable (non-available antibody for detecting the unphosphorylated form). […]
Background: In western blotting, separated proteins are transferred to a membrane and probed.

The test system of the next experiment is c-Jun. The experiment is described as follows: Western blot. Type of experiment: cell-based, Human. The following applies: 21/5.25 µM/mM OA/HP-β-CD; 10 µM OA/DMSO. How it is done:
as §1

The subject of experiment [2] is phospho-JNK1/2 (Thr 183/Tyr 185). Nature of the experiment: Western blot. In kind it is cell-based, Human. The following applies: 21/5.25 µM/mM OA/HP-β-CD; 10 µM OA/DMSO. As to the method: as §1
Experiment [3] relates to focal adhesions (FAs) revealed by Paxillin. The experiment is described as follows: Cell-front migration assay, focal adhesions by paxillin immunostaining. In kind it is cell-based, Mink. The following applies: 6 and 12 hours; 12.5/3.12 µM/mM OA/HP-β-CD; 5 µM OA/DMSO; versus basal and vehicle control.
Experimental: Mv1Lu cells are grown until they reach confluence on round glass-coverslips in 10% FBS-EMEM medium. At this time, cells are washed and a 24h serum-starvation period is set by replacing the medium with FBS-free EMEM. After this, the epithelium is scratched using a razor blade, which produces an artificial wound with enough space to allow cells to migrate. […] After the selected times of incubation, glass-coverslips are fixed with 4% formaldehyde (Applichem GmbH, Darmstadt, Germany) in PBS (Biowest, Nuaillé, France) for 10 minutes and washed twice with PBS. After this, cells are permeabilized with 0,3% Triton X-100 (Sigma-Aldrich, St Louis, MO, USA) in PBS for 10 minutes. For immunostaining, a blocking is performed for 30 minutes at room temperature in PBS solution with 10% FBS, 5% skim milk (Beckton Dickinson, Franklin Lakes, NJ, USA), 0,3% bovine serum albumin (BSA, Sigma-Aldrich, St Louis, MO, USA) and 0,1% Triton X-100. Then, cells are incubated 1 hour at room temperature with anti-paxillin or anti-phospho-c-Jun antibodies, diluted in blocking solution without skim milk. […] Briefly, focal adhesions are quantified from paxillin stained acquired pictures. […] Then, the number of FAs are calculated in each filopodia by using the previously mentioned macros. […] In parallel, the size of each FA is measured using the macros mentioned above. Finally, FA average size is calculated for each treatment.

Turning to Oleanolic acid [OA/DMSO], the “p-c-Jun in cells at the edge of the wound (immunostaining)” value in experiment [1] (6 and 12 hours) is recorded as “promote the up-regulation of this active form of c-Jun”. Also, the “p-c-Jun fluorescence in the nuclei (quantified)” value in experiment [1] is “promoted the expression and activation of this factor”. The p-c-Jun result in the experiment on phospho-c-Jun (Ser 63) is “stronger stimulation of p-c-Jun at time 1 hour”. The “total c-Jun levels” value in the experiment on c-Jun is “stimulated c-Jun overexpression at the early time of 1 h”. The p-JNK1/2 entry in experiment [2] is reported as “stimulated this kinase at time 1 hours”. In addition, in experiment [3], the “number of adhesion foci (FAs density)” value is “greater number of adhesion foci” and the “size of adhesion foci (FA average size)” value is “small foci”.
